Test results as given in PubChem BioAssay AID179 (DTP/NCI, 2004).
Values joined by “and” are separate entries in the source; they are usually repeats but may differ in a detail not shown here. Equal values may be shown once. Active and inactive are the calls of the source.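 Rule for the calls: active = compounds giving half or more protection of infected cells from virus-caused growth loss, again on retest; inactive = the rest.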 Where a SMILES comes first, the peptide text is derived from it. [ ]: non-standard residue; d: D form. The star is where a group is joined. ξ: configuration not given here. ξF = NC(Cc1ccccc1)C(=O)O; Cbz = O=C(OCc1ccccc1)*; Aib = CC(C)(N)C(=O)O

Test system: CEM cells HIV-1 protection, formazan growth assay
Experiment: NCI AIDS Antiviral Assay
Conditions: for IC50: measured here: growth of uninfected CEM cells
Method in brief: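 Human CEM cells, uninfected and HIV-1-infected, exposed to five drug concentrations; growth measured by soluble formazan assay and scored as percent protection from infection, with protecting compounds retested.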

| Structure (SMILES) | EC50 | IC50 | outcome |
| --- | --- | --- | --- |
| Fc1ccc(F)c(C=NC23CC4CC(CC(C4)C2)C3)c1 | > 200 µM | > 200 µM | – |
| CC1(C)N=C(N)N=C(N)N1c1cccc(N)c1.[Sn] | – | – | inactive |
| O=c1[nH]c(Nc2nc3ccccc3[nH]2)nc2c1CCC2 | > 200 µM | > 200 µM | – |
| CC(C)C1OC2(C)OC(=N)C1(C#N)C(C#N)(C#N)C2C (stereo not given) | > 200 µM | 12 µM | – |
| O=C1C(c2ccccc2)CS(=O)(=O)CC1c1ccccc1 (stereo not given) | > 120 µM | 36.3 µM | – |
| CCC(OCc1ccccc1)/C(C)=C/CC(C)C=C(Br)Br (stereo not given) | > 933 µM | 891 µM | – |
| CC(C)C(=O)/C=C/c1ccc(Cl)cc1 | – | – | inactive |
| CC(C)(C)N1NC1C1NN1C(C)(C)C (stereo not given) | > 200 µM | > 200 µM | – |
| COc1ccc(CCNCCCC2c3ccccc3-c3ccccc32)cc1OC | > 87.1 µM | 4.9 µM | – |
| C#CC(O)Cc1ccc(OC)c2occc12 (stereo not given) | > 200 µM | 117 µM | – |
| CC(=O)OC12C=CC(=O)N1c1ccccc1C(=O)O2 (stereo not given) | – | – | inactive |
| CSCCC(N)C(=O)NCCS(=O)(=O)O (stereo not given) | > 200 µM | > 200 µM | – |
| CCN(CC)CCOc1ccc(/C(C#N)=C/c2cccc3ccccc23)cc1 | > 200 µM | 1.78 µM | – |
| COc1cc(C(=O)N2C[C@H](O)C[C@H]2C(=O)O)cc(OC)c1OC | > 200 µM | > 200 µM | – |
| O=c1cn[nH]c2c(F)cccc12 | > 646 µM | 617 µM | – |
| CC(=O)c1ccc(N2C(=O)C3c4[nH]c5ccccc5c4C4CCC(C(C)(C)C)CC4C3C2=O)cc1 (stereo not given) | > 11.2 µM | > 11.2 µM | – |
| O=C1CCC(c2nc3cc(Cl)ccc3o2)C(=O)N1 (stereo not given) | > 245 µM | > 245 µM | – |
| CCOP(=O)(OCC)c1ccc[nH]1 | > 200 µM | > 200 µM | – |
| C/C(CN1C(=O)c2ccccc2C1=O)=N\NS(=O)(=O)c1ccc(F)cc1 | > 479 µM | > 479 µM | – |
| C#[N+]CCOP(=O)(OCC1OC(n2cc(C)c(=O)[nH]c2=O)CC1N=[N+]=[N-])O[C@H]1CC[C@@]2(C)C(=CC[C@H]3[C@@H]4CC[C@H](C(C)CCCC(C)C)[C@@]4(C)CC[C@@H]32)C1 (stereo not given in full) | 4.17 µM and 10 µM | > 200 µM | – |
| NCCCNCCSSCCCCS(=O)O | – | – | inactive |
| c1ccc(CCN(CCc2ccccn2)CCc2ccccn2)cc1 | – | – | inactive |
| Clc1ccc(Cc2nc3ccccc3s2)c(Cl)c1 | > 33.9 µM | 26.3 µM | – |

| Structure (SMILES) | EC50 | IC50 | outcome |
| --- | --- | --- | --- |
| Nc1c2c([nH]c(=O)c1N)CCC2 | > 200 µM | > 200 µM | – |
| C[N+]1(C)CN(c2ccccc2)C2(CCN(CCCC(=O)c3cccs3)CC2)C1=O | > 200 µM | 55 µM | – |
| N#CC1(C#N)C2=C(CCCC2)NC(c2ccc(Br)cc2)C1(C#N)C#N (stereo not given) | > 0.2 µM | 0.0813 µM | – |
| FC(F)(F)c1ccc2c(-c3cc[nH]c3)ccnc2c1 | > 200 µM | 15.5 µM | – |
| Nc1ccc2c(c1)C(=P(c1ccccc1)(c1ccccc1)c1ccccc1)c1ccccc1-2 | > 200 µM | 10.7 µM | – |
| NC(=O)c1ncn(Cc2ccccc2)c1CNC(N)=S | – | – | inactive |
| O=[N+]([O-])C=C(c1ccc(Cl)cc1)c1ccc(Cl)cc1 | – | – | inactive |
| COc1ccc2c(NCCCCCCNc3c4ccccc4nc4cc(OC)ccc34)c3ccccc3nc2c1 | – | – | inactive |
| CCOC(=O)CNC(=O)C(Cc1ccccc1)NC(=O)C(C)(C)NC(=O)OCc1ccccc1 (stereo not given) (Cbz-[Aib]-[ξF]-Gly-OEt) | > 200 µM | 95.5 µM | – |
| c1ccc2c(c1)cc1c3[nH]c4ccccc4c3ccn21 | > 200 µM | 6.76 µM | – |
| Cc1ccc(/C=C/CO)cc1 | – | – | inactive |
| C[C@@]12[C@H]3CC[C@@H]1[C@H](O)C(=O)N2CC3 | > 200 µM | > 200 µM | – |
| Nc1ccc2c(c1)CC1c3ccccc3C(C2)c2ccccc21 | – | – | inactive |
| COC(=O)c1c(-c2cc(OC)c(OC)c(OC)c2)oc2ccccc2c1=O | > 97.7 µM | 1.45 µM | – |
| O=C(O)C1C2c3ccccc3C(O)C1(C(=O)O)c1ccccc12 (stereo not given) | > 407 µM | > 407 µM | – |
| O=C1OC2(O)c3ccccc3C(=O)N2N2CCCCC12 (stereo not given) | > 646 µM | > 646 µM | – |
| CNC(=O)NCCCCC(NC(=O)OCc1ccccc1)C(=O)OCc1ccccc1 (stereo not given) | > 83.2 µM | 60.3 µM | – |
| CC1(C)C(=O)C2(N)CCC1C2 (stereo not given) | > 200 µM | > 200 µM | – |
| Cc1ccc(SSCC(O)C(O)CSSc2ccc(C)cc2)cc1 (stereo not given) | – | – | inactive |
| O=C(O)CC1OCC=C2CN3CCC45C6=CC(=O)C(=O)C([N+](=O)[O-])=C6NC4C1C2CC35 (stereo not given) | > 200 µM | 28.2 µM | – |
| CCOC(=O)/C(=C\c1cccc(C#N)c1)P(=O)(OCC)OCC | > 537 µM | 11 µM | – |
| O=c1c(CCO)c(C2CC2)n2n1CCCC2 | > 1120 µM | > 200 µM | – |
| O=C(O)Cc1sc(=O)[nH]c1O | > 200 µM | > 200 µM | – |

| Structure (SMILES) | EC50 | IC50 | outcome |
| --- | --- | --- | --- |
| CSc1ncnc2c1cnn2CCCCO | > 200 µM | > 200 µM | – |
| CC1=C[C@@]2(C=C(C(=O)O)[C@@]34CCCC(C)(C)C3C[C@@H]2OC4)OC1=O (stereo not given in full) | > 380 µM | > 380 µM | – |
| CCOC(=O)c1nc2cc(C(F)(F)F)ccc2nc1Nc1ccc(OC)cc1 | > 126 µM | > 126 µM | – |
| NC(CC(=O)O)C(=O)NC1Cc2ccccc2C1=O (stereo not given) | > 200 µM | 97.7 µM | – |
| Nc1cc(N)c(N=Nc2ccc(/C=C/c3ccc(N=Nc4c(N)cc(N)cc4C(=O)O)cc3S(=O)(=O)O)c(S(=O)(=O)O)c2)c(C(=O)O)c1 | > 178 µM | 170 µM | – |
| O=C(O/N=c1/ccc(=O)/c(=N\OC(=O)c2ccccc2)c1=O)c1ccccc1 | > 200 µM | 47.9 µM | – |
| CCOC(=O)c1cc2c([nH]1)c(O)cc1c2ccn1Cc1ccccc1 | > 200 µM | 29.5 µM | – |
| COc1cc(/C=C/c2ccc3ccccc3n2)cc(OC)c1OC | > 22.4 µM | 1.48 µM | – |
| Cc1ccc(N=C2N=C(N3CC(C)OC(C)C3)c3ccccc32)cc1 (stereo not given) | > 107 µM | 26.3 µM | – |
| NC(CCCCNCc1ccccc1O)C(=O)O (stereo not given) | > 178 µM | > 178 µM | – |
| N#C/C(=C\c1ccccc1Cl)c1ccccc1 | > 200 µM | 72.4 µM | – |
| CCCCN(CCCC)C(=O)C(=O)CC(=O)/C=C/c1ccccc1 | > 288 µM | > 288 µM | – |
| Nc1nc(=S)[nH]c(C(=O)Nc2ccc(Cl)c(Cl)c2)c1-c1ccc(Cl)cc1 | > 43.7 µM | > 43.7 µM | – |
| O=C(N=C1[Se]C(=Nc2ccccc2)C(=Nc2ccccc2)N1c1ccccc1)c1ccc([N+](=O)[O-])cc1 | > 200 µM | > 200 µM | – |
| CC(C)(C)C1COP(=O)(c2ccccc2)N(c2ccccc2)C1 (stereo not given) | > 200 µM | 38 µM | – |
| O=C(c1ccc(Cl)cc1)c1ccc(OCC(=O)N2CCN(c3ccccc3)CC2)cc1 | > 12 µM | > 12 µM | – |
| CN(C)CC(/C(Cc1ccccc1)=N\NC(=O)c1ccncc1)c1ccccc1 (stereo not given) | > 245 µM | 93.3 µM | – |
| CC(C)(CN1CCCCC1)C(=O)CC(SCCS(=O)(=O)O)c1ccccc1 (stereo not given) | > 200 µM | 3.31 µM | – |
| Cc1c(C)c2c(c(N)c1C#N)C(=O)N(Nc1ccccc1)C2=O | > 200 µM | 79.4 µM | – |
| C[C@@]12C[C@@H](c3ccccc3O1)N1CCCSC1=N2 | 74.1 µM | > 200 µM | – |
| O=C(O)[C@H](CCC[C@H]1C(=O)O[C@H](c2ccccc2)[C@H](c2ccccc2)N1C(=O)OCc1ccccc1)N[C@@H](c1ccccc1)[C@H](O)c1ccccc1 | > 89.1 µM | 77.6 µM | – |
| CC(/C=C/C=C/C=C/C=C/C=C/C(O)=C1/C(=O)C(CCC(=O)O)N(C)C1=O)=C\C(C)C(OC1CC(O)C(O)C(C)O1)C(C)C (stereo not given) | – | – | inactive |
| Cc1cc2oc(=O)[nH]c(=S)c2c(C)c1C | > 17 µM | > 17 µM | – |

| Structure (SMILES) | EC50 | IC50 | outcome |
| --- | --- | --- | --- |
| O=C1OC(c2ccccc2)c2ccsc2-n2cccc21 (stereo not given) | > 200 µM | 123 µM | – |
| Nc1c(-c2nc3ccccc3[nH]2)sc(=S)n1-c1ccc(Cl)cc1 | > 14.5 µM | > 14.5 µM | – |
| COCN1C(=N)C(C(=O)OC(C)(C)C)=C2C=C(O)C=CC21C (stereo not given) | > 200 µM | 1.45 µM | – |
| CCCCCCCCCCCCCCCCCCOP(=O)(O)OCCC=C(c1cc(Cl)c(O)c(C(=O)O)c1)c1cc(Cl)c(O)c(C(=O)O)c1 | > 170 µM | 63.1 µM | – |
| O=C1O[C@@H](c2ccccc2)C[C@H]1CN1CCOCC1 | – | – | inactive |
| Oc1ccccc1SSc1ccccc1O | > 200 µM | 63.1 µM | – |
| O=C(CC1(O)C(=O)Nc2c(Cl)cc(Cl)cc21)c1cccc([N+](=O)[O-])c1 (stereo not given) | > 19.1 µM | > 19.1 µM | – |
| CCOP(=O)(OCC)/C(C#N)=C/c1cccs1 | 77.6 µM | 724 µM | – |
| COc1cc(NC=O)c2c(c1)SCCC(=O)N2 | > 200 µM | > 200 µM | – |
| O=C1/C(=N\[O-])C(S(=O)(=O)[O-])=Cc2cc(S(=O)(=O)[O-])cc(O)c21.O=C1/C(=N\[O-])C(S(=O)(=O)[O-])=Cc2cc(S(=O)(=O)[O-])cc(O)c21.[Cu+2] | > 200 µM | 123 µM | – |
| O=[N+]([O-])c1ccc(Cl)cc1C1ON=C(c2ccccc2)N1C12CC3CC(CC(C3)C1)C2 (stereo not given) | > 100 µM | > 100 µM | – |
| CCCCN(CCCC)CCCCNc1c(C)cnc2cc(Cl)ccc12 | > 26.9 µM | 9.33 µM | – |
| O=[N+]([O-])c1ccc2[nH]c(=S)n(/C=C(/c3ccc(Cl)cc3Cl)S(=O)(=O)Cc3ccc(Cl)cc3Cl)c2c1 | > 200 µM | 170 µM | – |
| CC[N+]12CN3CN(CN(C3)C1)C2 | > 851 µM | 437 µM | – |
| Brc1ncnc2c1ncn2C1CCCS1 (stereo not given) | – | – | inactive |
| c1ccc2c(c1)[nH]c1c2nc2sccn21 | > 234 µM | > 145 µM and 214 µM | – |
| O=C(CSc1nnc(-c2ccc(N=Cc3ccc(Cl)cc3)cc2)o1)Nc1ccc(Cl)cc1 | > 269 µM | 141 µM | – |
| COc1ccc2c(c1)OC(OC)(c1ccccc1)C(O)(OC)C2=O (stereo not given) | > 200 µM | 15.1 µM | – |
| O=C(/C=C/c1ccccc1)CCN1CCCC1 | > 200 µM | 8.13 µM | – |
| O=C(Nc1ccccc1)c1cc(S(=O)(=O)N2CCNNC2=O)c(S)cc1Cl | 10.2 µM | 166 µM | – |
| COc1cc2c(cc1OC)C(Cc1ccccc1NC(=O)c1ccc(C(=O)Nc3ccccc3CC3c4cc(OC)c(OC)cc4CCN3C)cc1)N(C)CC2 (stereo not given) | – | – | inactive |
